Results reported in the supplement of paper PMC8967900.

Columns and labels:
Assay in all cases: selective drug sensitivity score (sDSS, relative to normal bone marrow) (sDSS (score)); higher = more potent and effective on the cell line relative to normal bone marrow cells
Conditions in all cases: 72 h
CCRF-CEM = tested on: CCRF-CEM
RCH-ACV = tested on: RCH-ACV
SEM cells = tested on: SEM cells
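Note: ALL cell lines in 384-well plates, five doses spanning 10,000-fold, each plate scaled between vehicle and 100 µmol/L benzalkonium chloride controls, sDSS an adapted area-under-curve metric.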

Row | SMILES | selective drug sensitivity score (CCRF-CEM) | selective drug sensitivity score (RCH-ACV) | selective drug sensitivity score (SEM cells)
1 | COc1cc([C@@H]2c3cc4c(cc3[C@@H](O[C@@H]3O[C@@H]5CO[C@@H](C)O[C@H]5[C@H](O)[C@H]3O)[C@H]3COC(=O)[C@H]23)OCO4)cc(OC)c1O [Etoposide] (top concentration 10000 nM) | 20.2 | 25.1 | 15.5
2 | CCCCCCCCc1ccc(CCC(N)(CO)CO)cc1 [Fingolimod] (top concentration 10000 nM) | 0.98 | 0.98 | 0.48
3 | O=C(NOCCO)c1ccc2cncn2c1Nc1ccc(I)cc1F [GDC-0623] (top concentration 2500 nM) | -1 | -3.4 | -3.4
4 | C[C@H]1CN(C2COC2)CCN1c1ccc(Nc2cc(-c3ccnc(N4CCn5c(cc6c5CC(C)(C)C6)C4=O)c3CO)cn(C)c2=O)nc1 [GDC-0853] (top concentration 1000 nM) | 0 | 0 | 0
5 | CCNc1nc(Nc2cc(F)c(C(=O)N3CCOCC3)cc2OC)ncc1C(F)(F)F [GNE-7915] (top concentration 1000 nM) | -0.06 | -0.06 | -0.06
6 | COc1cc2ncnc(Nc3ccc(F)c(Cl)c3)c2cc1OCCCN1CCOCC1 [Gefitinib] (top concentration 10000 nM) | 0.56 | 1.66 | 0.66
7 | CN1CC[C@@H](NC(=O)Nc2ccc(C#N)cc2)C[C@@H]1c1nc2ccccc2[nH]1 [Glasdegib] (top concentration 1000 nM) | 0 | 0 | 0
8 | CN1CCN(C2CCN(C(=O)Nc3cc(Oc4ccc(NC(=O)C5(C(=O)Nc6ccc(F)cc6)CC5)c(F)c4)ccn3)CC2)CC1 [Golvatinib] (top concentration 2500 nM) | -0.14 | 4.26 | 6.56
9 | CC(C)C[C@H](NC(=O)[C@@H](COC(C)(C)C)NC(=O)[C@H](Cc1ccc(O)cc1)NC(=O)[C@H](CO)NC(=O)[C@H](Cc1c[nH]c2ccccc12)NC(=O)[C@H](Cc1cnc[nH]1)NC(=O)[C@@H]1CCC(=O)N1)C(=O)N[C@@H](CCCNC(=N)N)C(=O)N1CCC[C@H]1C(=O)NNC(N)=O [Goserelin] (top concentration 10000 nM) | -0.06 | -0.06 | -0.06
10 | O=S(=O)(c1cccc2c(O)nccc12)N1CCCNCC1 [Hydroxyfasudil] (top concentration 19000 nM) | -0.32 | -0.72 | 0.08
11 | COc1cc(C(=O)O)ccc1NC(=O)[C@@H]1N[C@@H](CC(C)(C)C)[C@](C#N)(c2ccc(Cl)cc2F)[C@H]1c1cccc(Cl)c1F [Idasanutlin] (top concentration 10000 nM) | -9.94 | 21 | -10
12 | CCN1CCN(c2ccc(Nc3cc(N(C)C(=O)Nc4c(Cl)c(OC)cc(OC)c4Cl)ncn3)cc2)CC1 [Infigratinib] (top concentration 1000 nM) | 0 | 0 | 0
13 | O=C(Nc1cnn2ccc(N3CCC[C@@H]3c3cc(F)ccc3F)nc12)N1CC[C@H](O)C1 [Larotrectinib] (top concentration 1000 nM) | -0.62 | 1.48 | -0.62
14 | C[C@]1(O)C[C@@H](c2nc(-c3ccc4ccc(-c5ccccc5)nc4c3)c3c(N)nccn32)C1 [Linsitinib] (top concentration 10000 nM) | -3.18 | 0.72 | 0.62
15 | O=C(O)CC[C@H]1CC[C@@](c2cc(F)ccc2F)(S(=O)(=O)c2ccc(Cl)cc2)CC1 [MK-0752] (top concentration 1000 nM) | 0 | 0.3 | 0
16 | CNC(=O)[C@@H](NC(=O)[C@H](CC(C)C)[C@H](O)C(=O)NO)C(C)(C)C [Marimastat] (top concentration 10000 nM) | -0.48 | 2.02 | -1.08
